# Values of other authors in patent publication US20220370506A1, “AUGMENTATION OF FIBROBLAST MEDIATED REGENERATION OF INTRAVERTEBRAL DISCS” (FIGENE, LLC, priority 2019, published 2022).
# System: patients with chronic lumbosacral radiculopathy or discogenic low back pain
# [1] = authors' conclusion, single low dose intradiscal
substance,measurement,setting,value
etanercept,pain scores between or within groups,"1-month follow-up, 0.1, 0.25, 0.5, 0.75, 1.0, or 1.5 mg intradiscally in each pain-generating disc, any dose range or subgroup",no differences
same,disability scores between or within groups,"1-month follow-up, 0.1-1.5 mg intradiscally, any dose range or subgroup",no differences
same,effectiveness as treatment for chronic radicular or discogenic low back pain,[1],does not seem to be an effective treatment
same,serious side effects,[1],no serious side effects were observed
same,complications,"intradiscal 0.1-1.5 mg, 36 patients",No complications were reported
same,preprocedure versus postprocedure leukocyte counts,"intradiscal 0.1-1.5 mg, 1-month follow-up",no differences were noted
